Where two headings read alike, the source gives them in different places.
How the values were obtained:
Avena HPPD SEQ ID No 2 = Avena HPPD SEQ ID No 2 (Avena sativa, UniProt A0ACD5V6K6); experiment: Determination of HPPD activity in presence of N-(1,3,4-Oxadiazol-2-yl)arylcarboxamides (pI50); type: biochemical; conditions: negative log of molar concentration; inhibitor 0.1 to 100 μM; room temperature; 600 μM HPP
Procedure: (§1) HPPD activity was measured at room temperature by adding appropriate amounts of HPPD to a solution of 200 mM Tris-HCl pH 7.6, 10 mM ascorbate, 20 μM FeSO4, 650 units of catalase, 8 μg HGA dioxygenase (HGA: homogentisate) and 600 μM HPP in a total volume of 1 ml. Initial reaction rates in the absence or presence of inhibitors were determined from the increase in absorbance at 318 nm due to the formation of maleylacetoacetate (ϵ318=11,900 M−1 cm−1). pI50-values (the negative log values of the concentration of inhibitor necessary to inhibit 50% of the enzyme activity in molar concentration were determined from dose-response plots of HPPD activity versus inhibitor concentrations tested (0.1 to 100 μM) using the 4 Parameter Logistic Model or Sigmoidal Dose-Response Model of the ID Business Solutions Ltd. XLfit software suite. Due to the UV absorption of the HPPD inhibitors tested, inhibitor concentrations >100 μM could not be tested. In cases, the symbol “>” is used this means that the value was far higher than the one indicated but could not be precisely calculated within in the range of concentration of inhibitor tested.
(§2) In the 1st column of Table 8, the chemical compound employed in the assay is named (according to the numbering of the Tables 1 to 7, above). In columns 2, 3, 4, and 5 the pI50-values of the corresponding chemical compounds against various HPPD enzymes (name and SEQ ID Nos are indicated, respectively) are given.

FMP 37 SEQ ID No 9 = FMP 37 SEQ ID No 9 (Blepharisma japonicum, UniProt A8R3H6); experiment: as above; type: biochemical; conditions: negative log of molar concentration; inhibitor 0.1 to 100 μM; room temperature; 600 μM HPP
Procedure: as §1, §2

wild type soybean Merlin = type: in vivo; conditions: 14 days after treatment, total 4
[1] = system: T3 cotton events expressing PfHPPD-Evo33; type: in vivo; conditions: 200 g Al/ha, post-emergence V3, scored after 14 days, field
wild type soybean Thorne = type: in vivo; conditions: 14 days after treatment, total 4
[2] = target: PfHPPD Evo 41 SEQ ID No 29 (Pseudomonas sp., UniProt P80064, A172V/A339Q/A53E/D148E/D45N/E105D/E287Q/E300V/E334P/F143Y/G286D/G335W/H150N/H254A/H63N/I158V/I187A/I249V/K338A/K92N/L18F/N24G/N280D/S245T/S257K/S301E/T205S/V65I); experiment: biochemical; set-up: species or system Pseudomonas fluorescens
[3] = system: T2 soybean events expressing PfHPPD-Evo33; type: in vivo; conditions: 14 days after treatment
[4] = system: T2 soybean events expressing PfHPPD-Evo40; type: in vivo; conditions: 14 days after treatment
[5] = system: T2 soybean events expressing PfHPPD-Evo41; type: in vivo; conditions: 14 days after treatment
[6] = system: T3 cotton events expressing PfHPPD-Evo41; type: in vivo; conditions: 200 g Al/ha, post-emergence V3, scored after 14 days, field

PfHPPD Evo 41 SEQ ID No 29, sequence (P80064 1-354 with tags or gaps with the stated changes limits assumed): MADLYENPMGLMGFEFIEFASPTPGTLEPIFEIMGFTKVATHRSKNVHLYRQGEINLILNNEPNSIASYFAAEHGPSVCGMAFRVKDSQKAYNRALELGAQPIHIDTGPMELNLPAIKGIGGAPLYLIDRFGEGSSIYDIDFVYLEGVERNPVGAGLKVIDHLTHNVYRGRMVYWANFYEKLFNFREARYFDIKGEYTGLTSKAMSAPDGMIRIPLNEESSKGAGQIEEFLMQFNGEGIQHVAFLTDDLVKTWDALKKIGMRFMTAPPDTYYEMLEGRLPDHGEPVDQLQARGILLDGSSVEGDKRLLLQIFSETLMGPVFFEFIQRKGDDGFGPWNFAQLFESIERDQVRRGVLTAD
Avena HPPD SEQ ID No 2, sequence (A0ACD5V6K6 entry or part of it): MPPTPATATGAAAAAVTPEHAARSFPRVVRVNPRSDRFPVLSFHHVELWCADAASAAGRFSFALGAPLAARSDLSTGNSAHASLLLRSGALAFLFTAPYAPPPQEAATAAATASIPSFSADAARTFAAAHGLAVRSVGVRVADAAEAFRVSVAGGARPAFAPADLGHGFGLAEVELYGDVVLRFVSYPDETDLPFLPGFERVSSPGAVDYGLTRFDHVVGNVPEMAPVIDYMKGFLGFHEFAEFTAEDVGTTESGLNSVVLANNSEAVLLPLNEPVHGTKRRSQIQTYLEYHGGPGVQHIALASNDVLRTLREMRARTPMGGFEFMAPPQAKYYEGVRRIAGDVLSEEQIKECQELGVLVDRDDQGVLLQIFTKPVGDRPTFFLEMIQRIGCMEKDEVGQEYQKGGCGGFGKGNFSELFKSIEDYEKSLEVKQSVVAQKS
FMP 37 SEQ ID No 9, sequence (A8R3H6 entry or part of it): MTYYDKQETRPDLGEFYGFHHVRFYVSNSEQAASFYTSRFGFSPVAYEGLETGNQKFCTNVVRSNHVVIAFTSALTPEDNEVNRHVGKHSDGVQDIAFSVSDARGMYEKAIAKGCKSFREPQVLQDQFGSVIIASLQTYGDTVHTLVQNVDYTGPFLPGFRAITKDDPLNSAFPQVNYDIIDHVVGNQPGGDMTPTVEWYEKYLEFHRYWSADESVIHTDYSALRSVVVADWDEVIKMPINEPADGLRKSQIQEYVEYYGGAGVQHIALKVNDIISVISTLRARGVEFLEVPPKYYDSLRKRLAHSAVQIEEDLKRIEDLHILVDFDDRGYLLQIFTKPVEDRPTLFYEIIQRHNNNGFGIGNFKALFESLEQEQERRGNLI

What does the source list for `Cc1nnc(NC(=O)c2ccc(C(F)(F)F)c(S(C)(=O)=O)c2C)o1` [Compound 2-145]?
IC50 (Avena HPPD SEQ ID No 2): 1.58 µM; IC50 (FMP 37 SEQ ID No 9): 10 µM; Number of plants categorized herbicide tolerance “0” (marginal; 41%-100% damaged leaf area) (wild type soybean Merlin; Merlin (wt), 6.25 g Al/ha): 4; Number of plants categorized herbicide tolerance “1” (moderate; 26%-40% damaged leaf area) (wild type soybean Merlin; Merlin (wt), 6.25 g Al/ha): 0; Number of plants categorized herbicide tolerance “2” (good; 16%-25% damaged leaf area) (wild type soybean Merlin; Merlin (wt), 6.25 g Al/ha): 0; Number of plants categorized herbicide tolerance “3” (high; less than or equal to 15% damaged leaf area) (wild type soybean Merlin; Merlin (wt), 6.25 g Al/ha): 0; Number of plants categorized herbicide tolerance “0” (marginal; 41%-100% damaged leaf area) (wild type soybean Merlin; Merlin, 25 g Al/ha): 4; Number of plants categorized herbicide tolerance “1” (moderate; 26%-40% damaged leaf area) (wild type soybean Merlin; Merlin, 25 g Al/ha): 0; Number of plants categorized herbicide tolerance “2” (good; 16%-25% damaged leaf area) (wild type soybean Merlin; Merlin, 25 g Al/ha): 0; Number of plants categorized herbicide tolerance “3” (high; less than or equal to 15% damaged leaf area) (wild type soybean Merlin; Merlin, 25 g Al/ha): 0; Average maximum phytotoxicity scoring ([1]; cotton event Evo33/1): 3 (“3” = high tolerance; 0%-10% damaged leaf area); Average maximum phytotoxicity scoring ([1]; cotton event Evo33/2): 3 (“3” = high tolerance; 0%-10% damaged leaf area); Average maximum phytotoxicity scoring ([1]; cotton event Evo33/3): 3 (“3” = high tolerance; 0%-10% damaged leaf area); Average maximum phytotoxicity scoring ([1]; cotton event Evo33/4): 3 (“3” = high tolerance; 0%-10% damaged leaf area); Average maximum phytotoxicity scoring ([1]; cotton event Evo33/5): 3 (“3” = high tolerance; 0%-10% damaged leaf area); Average maximum phytotoxicity scoring ([1]; cotton event Evo33/6): 3 (“3” = high tolerance; 0%-10% damaged leaf area); Number of plants categorized herbicide tolerance “0” (marginal; 41%-100% damaged leaf area) (wild type soybean Thorne; Thorne (wt), 6.25 g Al/ha): 4; Number of plants categorized herbicide tolerance “1” (moderate; 26%-40% damaged leaf area) (wild type soybean Thorne; Thorne (wt), 6.25 g Al/ha): 0; Number of plants categorized herbicide tolerance “2” (good; 16%-25% damaged leaf area) (wild type soybean Thorne; Thorne (wt), 6.25 g Al/ha): 0; Number of plants categorized herbicide tolerance “3” (high; less than or equal to 15% damaged leaf area) (wild type soybean Thorne; Thorne (wt), 6.25 g Al/ha): 0; Number of plants categorized herbicide tolerance “0” (marginal; 41%-100% damaged leaf area) (wild type soybean Thorne; Thorne, 25 g Al/ha): 4; Number of plants categorized herbicide tolerance “1” (moderate; 26%-40% damaged leaf area) (wild type soybean Thorne; Thorne, 25 g Al/ha): 0; Number of plants categorized herbicide tolerance “2” (good; 16%-25% damaged leaf area) (wild type soybean Thorne; Thorne, 25 g Al/ha): 0; Number of plants categorized herbicide tolerance “3” (high; less than or equal to 15% damaged leaf area) (wild type soybean Thorne; Thorne, 25 g Al/ha): 0; IC50 [2]: 5.01 µM; Number of plants categorized herbicide tolerance “0” (marginal; 41%-100% damaged leaf area) ([3]; 6.25 g Al/ha, total 12): 0; Number of plants categorized herbicide tolerance “1” (moderate; 26%-40% damaged leaf area) ([3]; 6.25 g Al/ha, total 12): 0; Number of plants categorized herbicide tolerance “2” (good; 16%-25% damaged leaf area) ([3]; 6.25 g Al/ha, total 12): 0; Number of plants categorized herbicide tolerance “3” (high; less than or equal to 15% damaged leaf area) ([3]; 6.25 g Al/ha, total 12): 12; Number of plants categorized herbicide tolerance “0” (marginal; 41%-100% damaged leaf area) ([3]; 25 g Al/ha, total 16): 1; Number of plants categorized herbicide tolerance “1” (moderate; 26%-40% damaged leaf area) ([3]; 25 g Al/ha, total 16): 1; Number of plants categorized herbicide tolerance “2” (good; 16%-25% damaged leaf area) ([3]; 25 g Al/ha, total 16): 0; Number of plants categorized herbicide tolerance “3” (high; less than or equal to 15% damaged leaf area) ([3]; 25 g Al/ha, total 16): 14; Number of plants categorized herbicide tolerance “0” (marginal; 41%-100% damaged leaf area) ([3]; 50 g Al/ha, total 4): 0; Number of plants categorized herbicide tolerance “1” (moderate; 26%-40% damaged leaf area) ([3]; 50 g Al/ha, total 4): 0; Number of plants categorized herbicide tolerance “2” (good; 16%-25% damaged leaf area) ([3]; 50 g Al/ha, total 4): 1; Number of plants categorized herbicide tolerance “3” (high; less than or equal to 15% damaged leaf area) ([3]; 50 g Al/ha, total 4): 3; Number of plants categorized herbicide tolerance “0” (marginal; 41%-100% damaged leaf area) ([3]; 75 g Al/ha, total 4): 0; Number of plants categorized herbicide tolerance “1” (moderate; 26%-40% damaged leaf area) ([3]; 75 g Al/ha, total 4): 0; Number of plants categorized herbicide tolerance “2” (good; 16%-25% damaged leaf area) ([3]; 75 g Al/ha, total 4): 0; Number of plants categorized herbicide tolerance “3” (high; less than or equal to 15% damaged leaf area) ([3]; 75 g Al/ha, total 4): 4; Number of plants categorized herbicide tolerance “0” (marginal; 41%-100% damaged leaf area) ([4]; 6.25 g Al/ha, total 8): 0; Number of plants categorized herbicide tolerance “1” (moderate; 26%-40% damaged leaf area) ([4]; 6.25 g Al/ha, total 8): 0; Number of plants categorized herbicide tolerance “2” (good; 16%-25% damaged leaf area) ([4]; 6.25 g Al/ha, total 8): 0; Number of plants categorized herbicide tolerance “3” (high; less than or equal to 15% damaged leaf area) ([4]; 6.25 g Al/ha, total 8): 8; Number of plants categorized herbicide tolerance “0” (marginal; 41%-100% damaged leaf area) ([4]; 25 g Al/ha, total 12): 0; Number of plants categorized herbicide tolerance “1” (moderate; 26%-40% damaged leaf area) ([4]; 25 g Al/ha, total 12): 0; Number of plants categorized herbicide tolerance “2” (good; 16%-25% damaged leaf area) ([4]; 25 g Al/ha, total 12): 0; Number of plants categorized herbicide tolerance “3” (high; less than or equal to 15% damaged leaf area) ([4]; 25 g Al/ha, total 12): 12; Number of plants categorized herbicide tolerance “0” (marginal; 41%-100% damaged leaf area) ([4]; 50 g Al/ha, total 4): 0; Number of plants categorized herbicide tolerance “1” (moderate; 26%-40% damaged leaf area) ([4]; 50 g Al/ha, total 4): 0; Number of plants categorized herbicide tolerance “2” (good; 16%-25% damaged leaf area) ([4]; 50 g Al/ha, total 4): 0; Number of plants categorized herbicide tolerance “3” (high; less than or equal to 15% damaged leaf area) ([4]; 50 g Al/ha, total 4): 4; Number of plants categorized herbicide tolerance “0” (marginal; 41%-100% damaged leaf area) ([4]; 75 g Al/ha, total 4): 0; Number of plants categorized herbicide tolerance “1” (moderate; 26%-40% damaged leaf area) ([4]; 75 g Al/ha, total 4): 0; Number of plants categorized herbicide tolerance “2” (good; 16%-25% damaged leaf area) ([4]; 75 g Al/ha, total 4): 0; Number of plants categorized herbicide tolerance “3” (high; less than or equal to 15% damaged leaf area) ([4]; 75 g Al/ha, total 4): 4; Number of plants categorized herbicide tolerance “0” (marginal; 41%-100% damaged leaf area) ([5]; 6.25 g Al/ha, total 12): 0; Number of plants categorized herbicide tolerance “1” (moderate; 26%-40% damaged leaf area) ([5]; 6.25 g Al/ha, total 12): 1; Number of plants categorized herbicide tolerance “2” (good; 16%-25% damaged leaf area) ([5]; 6.25 g Al/ha, total 12): 0; Number of plants categorized herbicide tolerance “3” (high; less than or equal to 15% damaged leaf area) ([5]; 6.25 g Al/ha, total 12): 11; Number of plants categorized herbicide tolerance “0” (marginal; 41%-100% damaged leaf area) ([5]; 25 g Al/ha, total 16): 0; Number of plants categorized herbicide tolerance “1” (moderate; 26%-40% damaged leaf area) ([5]; 25 g Al/ha, total 16): 0; Number of plants categorized herbicide tolerance “2” (good; 16%-25% damaged leaf area) ([5]; 25 g Al/ha, total 16): 0; Number of plants categorized herbicide tolerance “3” (high; less than or equal to 15% damaged leaf area) ([5]; 25 g Al/ha, total 16): 16; Number of plants categorized herbicide tolerance “0” (marginal; 41%-100% damaged leaf area) ([5]; 50 g Al/ha, total 4): 0; Number of plants categorized herbicide tolerance “1” (moderate; 26%-40% damaged leaf area) ([5]; 50 g Al/ha, total 4): 0; Number of plants categorized herbicide tolerance “2” (good; 16%-25% damaged leaf area) ([5]; 50 g Al/ha, total 4): 2; Number of plants categorized herbicide tolerance “3” (high; less than or equal to 15% damaged leaf area) ([5]; 50 g Al/ha, total 4): 2; Number of plants categorized herbicide tolerance “0” (marginal; 41%-100% damaged leaf area) ([5]; 75 g Al/ha, total 4): 0; Number of plants categorized herbicide tolerance “1” (moderate; 26%-40% damaged leaf area) ([5]; 75 g Al/ha, total 4): 0; Number of plants categorized herbicide tolerance “2” (good; 16%-25% damaged leaf area) ([5]; 75 g Al/ha, total 4): 0; Number of plants categorized herbicide tolerance “3” (high; less than or equal to 15% damaged leaf area) ([5]; 75 g Al/ha, total 4): 4; Average maximum phytotoxicity scoring ([6]; cotton event Evo41/1): 3 (“3” = high tolerance; 0%-10% damaged leaf area); Average maximum phytotoxicity scoring ([6]; cotton event Evo41/2): 3 (“3” = high tolerance; 0%-10% damaged leaf area); Average maximum phytotoxicity scoring ([6]; cotton event Evo41/3): 3 (“3” = high tolerance; 0%-10% damaged leaf area); Average maximum phytotoxicity scoring ([6]; cotton event Evo41/4): 3 (“3” = high tolerance; 0%-10% damaged leaf area); Average maximum phytotoxicity scoring ([6]; cotton event Evo41/5): 3 (“3” = high tolerance; 0%-10% damaged leaf area); Average maximum phytotoxicity scoring ([6]; cotton event Evo41/6): 3 (“3” = high tolerance; 0%-10% damaged leaf area); Average maximum phytotoxicity scoring ([6]; cotton event Evo41/7): 3 (“3” = high tolerance; 0%-10% damaged leaf area); Average maximum phytotoxicity scoring ([6]; cotton event Evo41/8): 3 (“3” = high tolerance; 0%-10% damaged leaf area); Average maximum phytotoxicity scoring ([6]; cotton event Evo41/9): 3 (“3” = high tolerance; 0%-10% damaged leaf area); Average maximum phytotoxicity scoring ([6]; cotton event Evo41/10): 3 (“3” = high tolerance; 0%-10% damaged leaf area); Average maximum phytotoxicity scoring ([6]; cotton event Evo41/11): 3 (“3” = high tolerance; 0%-10% damaged leaf area); Average maximum phytotoxicity scoring ([6]; cotton event Evo41/12): 2 (“2” = good tolerance; 11%-15% damaged leaf area); Average maximum phytotoxicity scoring ([6]; cotton event Evo41/13): 3 (“3” = high tolerance; 0%-10% damaged leaf area); Average maximum phytotoxicity scoring ([6]; cotton event Evo41/14): 3 (“3” = high tolerance; 0%-10% damaged leaf area); Average maximum phytotoxicity scoring ([6]; cotton event Evo41/15): 3 (“3” = high tolerance; 0%-10% damaged leaf area)

From patent US10508089B2, “Use of N-(1,3,4-Oxadiazol-2-yl)arylcarboxamides or their salts for controlling unwanted plants in areas of transgenic crop plants being tolerant to HPPD inhibitor herbicides” (BASF SE, priority 2014, dated 2019)
